From patent publication US20130210881A1, “ANTIMICROBIAL COMPOSITION” (Agency for Science ,Technology and Research, priority 2010, published 2013)

Assays:
Format in all cases: cell-based
[1] = tested on: Escherichia coli (ATCC 25922, gram-negative); assay: Antimicrobial analysis, MIC, E. coli; details: ATCC25922, 37° C., 24 hours, concentration necessary to inhibit complete cell growth
Experimental: (§1) All bacteria and yeast originated from a −80° C. frozen stock. Bacteria were grown overnight at 37° C. in Tryptic Soy broth (TSB) and yeast was grown overnight at 22° C. in Yeast Mold (YM) broth. Sub-samples of these cultures were grown for three hours further and diluted to an OD600 of 0.1. The bacteria solutions (about 2˜5×10^8 cells/mL) were then added to the 96-well plate and were incubated at 37° C. for 24 hours. All experiments were run in triplicate and the reported minimum inhibitory concentration (MIC) is the concentration necessary to inhibit complete cell growth.

[2] = tested on: Bacillus subtilis (ATCC 23857, gram-positive); assay: Antimicrobial analysis, MIC, B. subtilis; details: ATCC23857, 37° C., 24 hours, concentration necessary to inhibit complete cell growth
Experimental: as §1

[3] = tested on: Candida albicans (ATCC 10231, yeast); assay: Antimicrobial analysis, MIC, C. albicans; details: ATCC10231, concentration necessary to inhibit complete cell growth
Experimental: as §1

Measured: MIC

c1ccc(C[n+]2ccn(Cc3ccc(Cn4cc[n+](Cc5ccccc5)c4)cc3)c2)cc1 [Sample 3a]
> 250 µg/mL: all assays above

c1ccc(C[n+]2ccn(Cc3ccccc3Cn3cc[n+](Cc4ccccc4)c3)c2)cc1 [Sample 3b]
> 250 µg/mL: all assays above

c1ccc(C[n+]2ccn(Cc3ccc(Cn4cc[n+](Cc5ccc(Cn6cc[n+](Cc7ccccc7)c6)cc5)c4)cc3)c2)cc1 [Sample 3c]
> 250 µg/mL: all assays above

C(=C/CCn1cc[n+](Cc2ccccc2)c1)/CCn1cc[n+](CC/C=C\CCn2cc[n+](Cc3ccccc3)c2)c1 [Sample 3d]
> 250 µg/mL: all assays above

C(=C/CCn1cc[n+](Cc2ccc(Cn3cc[n+](CC/C=C\CCn4cc[n+](Cc5ccccc5)c4)c3)cc2)c1)/CCn1cc[n+](Cc2ccccc2)c1 [Sample 3f]
> 250 µg/mL: all assays above
